According to patent US5948782A, “Pharmaceutical composition containing quinoline and quinazoline derivatives and novel compounds therefor” (Takeda Chemical, priority 1992, dated 1999):

How the values were obtained:
[1] = system: Antigen-responsive T cell; experiment: Antigen-Responsive T Cell Growth Inhibitory Activity (PPD-stimulated 3H-Tdr incorporation); assay type: cell-based, Lewis rats; conditions: PPD 2 μg/ml, Lewis rat T cells, read-out: Antigen-responsive T cell growth inhibitory rate (%)
Description: Antigen-Responsive T Cell Growth Inhibitory Activity
According to the method of Test Example 1, adjuvant arthritis was induced in Lewis rats (male, 7 weeks old). After 14 days, lymphonodi inguinales were excised. Then, a single-cell suspension was prepared by using RPMI-1640 medium containing 5% fetal bovine serum and then incubated at 37° C. for 1 hour in a nylon wool column. The cells were eluted from the column with the same medium. The non-adsorptive cell-fraction was used as T cells.
On the other hand, spleen cells were taken out from unsensitized Lewis rats (male, 8 to 9 weeks old) and irradiated with soft X-rays (20,000 R). To the spleen cells (1×10^5 cells/well) were added the above T cells (5×10^5 cells/well), PPD (Purified Protein Derivatives; final concentration: 2 μg/ml) and 2% Lewis rat serum (treated at 56° C. for 30 minutes). The mixture was incubated at 37° C. for 72 hours in a 5% carbonic acid incubator. Further, ^3 H-Tdr (0.5 μCi/well) was added followed by incubation for 24 hours. The cells were recovered, and the radioactivity of ^3 H-Tdr incorporated into the cells was determined. The test drug was added to the cell suspension just before the addition of PPD, and effects on incorporation of ^3 H-Tdr into the cells were observed.

[2] = system: Rat Carrageenin Paw Edema; experiment: Rat Carrageenin Paw Edema Inhibitory Activity; assay type: in vivo; conditions: Jcl:SD rats, 50 mg/kg orally, 3 hours after carrageenin
Description: Rat Carrageenin Paw Edema Inhibitory Activity
The volume of a planter part of a right hind leg of Jcl:SD rats (male, 6 weeks old) was measured, and then suspension of a test drug (50 mg/kg) in 5% acacia was administered orally. Then water was administered additionally so that the total amount of administered liquid became 5 ml/rat. After 1 hour, a suspension (0.05 ml) containing 1% carrageenin in physiological saline was injected intradermally into the plantar to induce swelling [Winter, C. A. et al; Proc. Soc. Exp. Biol. Med., 111, 544 (1962)]. The volume of the right hind leg was measured again 3 hours after the carrageenin injection, and swelling inhibitory rate was calculated from the difference in the volumes before and after the injection.

mice = experiment: Oral toxicity in mice; assay type: in vivo; conditions: 300 mg/kg administered orally to mice
Description: The compounds of the present invention have low toxicity. For example, when 300 mg/kg of the compounds prepared in Examples 36, 45, 47, 54 and 64 were administered orally to mice, no mice died. Therefore, the compounds of the present invention are useful as an anti-inflammatory agent, particularly an agent for treating arthritis producing inflammatory symptoms, in humans and other mammals.

[3] = system: mouse phenylquinone writhing; experiment: Analgesic Activity in Mice (phenylquinone writhing model); assay type: in vivo; conditions: Slc:ICR mice, 50 mg/kg orally, 20 minutes
Description: Analgesic Activity in Mice
A drug (50 mg/kg) suspended in 5% acacia was administered orally to Slc:ICR mice (male, 4 weeks old). After 30 minutes, a 0.02% phenylquinone solution (0.1 ml/[…]) in 5% ethanol was administered intraperitoneally. Writhing and stretching reactions for 20 minutes after the injection were calculated for each mouse to evaluate analgesic activity of the test drug [Siegmund, E. et al.; Proc. Soc. Exp. Biol. Med., 95, 729 (1957)].

IL-1β = experiment: Anti-IL-1 activity (extracellular substrates of rat cartilage cells); assay type: cell-based; conditions: 72 h, IL-1β 0.2 ng/ml, 3 days, read-out: IL-1 inhibitory activity (%)
Description: Rat cartilage cells were prepared according to the known method [Fujio Suzuki et al., Sin Seikagaku Jikken Kohza, 18, p.871-875 (1990)] and cultivated in Dulbecco's Medium containing 10% fetal bovine serum. After 8 days, various concentrations of a test drug and IL-1β (0.2 ng/ml) were added, and the cells were cultivated for additional 3 days. The amount of extracellular substrates thus produced was determined.
Although IL-1β inhibits the synthesis of extracellular substrates of cartilage cells, addition of the drug inhibits the IL-1 activity and the amount of extracellular substrates synthesized was recovered.

## CCOC(=O)c1c(CSc2nc3ccccc3c(=O)[nH]2)nc2cc(OC)c(OC)cc2c1-c1ccc(OC)c(OC)c1 [Example 64, ethyl 6,7-dimethoxy-4-(3,4-dimethoxyphenyl)-2-[(3,4-dihydro-4-oxoquinazolin-2-yl)thiomethyl]quinoline-3-carboxylate]
[1]; 1 μM
  inhibition at 1 µM: 53%
[1]; 10 μM
  inhibition at 10 µM: 78%
[2]
  Swelling inhibitory rate (%): 36%
mice
  mortality: no mice died
[3]
  Inhibitory rate (%): 27%
IL-1β; 1 μM
  inhibition at 1 µM: 23%
IL-1β; 10 μM
  inhibition at 10 µM: 50%
